The record followed here is publication PMC9131456, “Structure-Based Discovery of Lipoteichoic Acid Synthase Inhibitors” (Journal of Chemical Information and Modeling, 2022).

One data set deals with HEK293 cells. The data set is described as follows: LDH release cytotoxicity assay. In kind it is cell-based, human. The following applies: 200 μM compound, 24 h. The procedure: The human embryonic kidney (HEK293) cells were maintained in Dulbecco’s modified Eagle medium (DMEM) supplemented with 10% fetal bovine serum and 100 units/mL of penicillin–streptomycin. For the cell viability assays, cells were seeded onto 96-well plates at a density of 4 × 10^4 cells/well and grown at 37 °C at 5% CO2. After incubating the cells for 24 h, the culture media were replaced with fresh DMEM supplemented with 200 μM of the compounds 1771, compound 4, compound 8, and compound 9 and incubated further for an additional 24 h. The cytotoxicity of these drugs was measured using the LDH Cytotoxicity Assay Kit according to the manufacturer’s instruction (Thermo Scientific). The absorbance at 490 nm was measured with a CLARIOstar microplate reader (BMG Labtech), and the reference wavelength was set at 630 nm.
Background: LDH leaks from cells whose membrane has failed.

Data set [1] concerns S. aureus (strain Newman). Kind of data set: Antimicrobial microdilution broth assay (growth inhibition). The data set is classed as cell-based. The following applies: for IC50: S. aureus strain Newman growth, OD600nm after 20 h at 37 °C, MH2 broth, mean ± s.e.m., n = 3. The procedure: All the compounds tested in this study were dissolved in dimethyl sulfoxide (DMSO) at an initial stock concentration of 20 mM and stored at −20 °C. These compounds were tested for their antimicrobial activity using the microdilution broth method[66] following the protocol described by Richter et al.[30] Briefly, overnight cultures of S. aureus (strain Newman) grown at 37 °C in cation-adjusted Mueller Hinton II (MH2) broth were adjusted to an OD600nm of 0.6 before back-diluted with a factor of 1:2000 with the same broth. After that, 200 μL of the diluted bacterial culture were dispensed into each well of 96-well plates supplemented with the compounds to the desired concentrations. The plates were then sealed with a moisture membrane barrier and incubated statically for 20 h at 37 °C. After that, the OD600nm values of the cultures in each well were measured using a CLARIOstar microplate reader (BMG Labtech). The procedures for the potentiation assays were by large the same as described above with some variations. In such assays, MRSA strain COL was grown in the 96-well plates supplemented with different concentrations of compound 9 with methicillin, carbenicillin, or polymyxin B in a checkerboard format. Their synergistic effects were quantified by OD600nm measurements using a CLARIOstar microplate reader (BMG Labtech).
Background: Broth dilution looks for growth in wells or tubes with falling amounts of substance.

For another data set, the target named is T1, wild-type eLtaS (Staphylococcus aureus, UniProt Q2G093).
T1 construct: LtaS is a transmembrane protein with a large extracellular catalytic domain (denoted as eLtaS); His-tag; made in house; host or cells: E. coli (Rosetta; plasmid pProEX-eLtaS from strain ANG571)
Kind of data set: Isothermal titration calorimetry, wild-type eLtaS. In kind it is binding, S. aureus. The following applies: ITC; for Kd: 25 °C, wild-type eLtaS titrated into 10 μM inhibitor. The procedure: Each of the eLtaS proteins were purified from 6 L of E. coli cultures that were grown with aeration in LB medium supplemented with 200 μg/mL of carbenicillin and 34 μg/mL of chloramphenicol at 37 °C. When the cultures reached an OD600nm of about 0.6, protein expression was induced with 1 mM IPTG final concentration at 21 °C overnight. Later, the bacteria were harvested by centrifugation at 11,899g, and the bacterial pellets were resuspended with lysis buffer (50 mM Trizma-HCl, pH 7.5, 300 mM NaCl, 5% glycerol, 10 mM imidazole, 5 mM β-mercaptoethanol). The bacterial pellets were lyzed by three passages through a high-pressure emulsifier, and the lysates were centrifuged at 47,596g for 30 min at 4 °C. The resulting supernatants containing the His-tagged eLtaS proteins were filtered with a 0.22 μm filter before being loaded onto a 5 mL Ni-NTA column using an ÄKTApure protein purification system. The bound proteins were subsequently washed with lysis buffer, eluted using the elution buffer (50 mM Trizma-HCl, pH 7.5, 300 mM NaCl, 5% glycerol, and 300 mM imidazole), and dialyzed twice using the dialysis buffer [25 mM Trizma-HCl, pH 7.5, 100 mM NaCl, 10% glycerol, 1 mM ethylenediaminetetraacetic acid (EDTA)]. After dialysis, protein purity was confirmed to be >90% using SDS-PAGE. Proteins were then concentrated, snap-frozen in liquid N2, and stored at −80 °C prior to usage. All four eLtaS proteins were subjected to circular dichroism analysis, and their exact masses were determined using MS.
The thawed eLtaS proteins were dialyzed using D-Tube Dialyzer Mini (EMD Millipore) in 20 mM Trizma-HCl pH 7.5, 100 mM NaCl with Chelex 100 (Sigma-Aldrich) for 1.5 h twice on the same day prior to the ITC experiments. After dialysis, the eLtaS proteins were centrifuged at 20,000g at 10 °C for 10 min. The supernatants were transferred to new microcentrifuge tubes and diluted to 100 μM using the same buffer as above with an addition of 0.1% (v/v) DMSO. Meanwhile, the eLtaS inhibitors were diluted to 10 μM using the same buffer and maintaining 0.1% (v/v) DMSO. The eLtaS proteins were titrated into the main cell containing the inhibitors using a VP-ITC at 25 °C. The injection parameters were set as follows: a reference power of 15 μcal/s, an initial injection of 3 μL over a duration of 3.6 s, and then subsequent injections of 10 μL over a duration of 12 s. All injections were spaced with 240 s with a filter period of 2 s. Data were first analyzed in NITPIC[69] for baseline calculations and then fit for thermodynamic parameters using the OneSite model in Origin 7.0 software.
Background: ITC needs no label: the signal is the heat of the interaction.

In data set [2] the test system is LTA production in S. aureus (strain RN4220). The data set is described as follows: Western blot (immunoblotting) of LTA in S. aureus cell extracts. The data set is classed as cell-based. The following applies: for LTA production: Western blot of S. aureus cell extracts, 10 μM in Figure S14, 100 μM for compound 8. The procedure:
The procedures of LTA detection using Western Blot had previously been reported by Gründling et al.[52] To determine the effect of the compounds on LTA production, 10 mL cultures of S. aureus (strain RN4220) in MH2 broth were incubated in an orbital shaker at 37 °C with either the compounds or DMSO. When the control cultures had reached an OD600nm ∼ 1, the bacteria were pelleted and the OD600nm of the cultures normalized by resuspension with the appropriate amount of MH2 broth. Subsequently, 1 mL from each cultures was mixed with 0.5 mL of 0.1 mm glass beads, and the bacteria were lyzed by vortexing at 4 °C for 45 min. After lysis, glass beads were removed by centrifugation at 200g, and the supernatants were transferred to a new tube. The membrane-associated LTA from each culture were pelleted by an additional centrifugation step of the supernatant at 16,000g for 15 min before resuspension in 30 μL of 2× SDS. The samples were boiled at 80 °C for 20 min, and the solubilized fractions were loaded onto 15% SDS-polyacrylamide gels prior to electrophoresis at 120 V for 1.5 h. The LTA on the gels were electrotransferred onto FL-immobilon PVDF membranes at 25 V for another 1.5 h. After the electrotransfer, the membranes were blocked with 5% skimmed milk for 1 h and incubated with the antimouse LTA antibody (clone G43J, Thermo Fisher Scientific; 1:1000 dilution) overnight at 4 °C. After washing, the membranes were incubated with antimouse IRDye 680RD (1:10,000 dilution) for 1 h, washed, and visualized using the Odyssey CLx Imaging System.

[3] abbreviates: Staphylococcus aureus, NEWMAN, 20 h.

T1 sequence (Q2G093 218-646): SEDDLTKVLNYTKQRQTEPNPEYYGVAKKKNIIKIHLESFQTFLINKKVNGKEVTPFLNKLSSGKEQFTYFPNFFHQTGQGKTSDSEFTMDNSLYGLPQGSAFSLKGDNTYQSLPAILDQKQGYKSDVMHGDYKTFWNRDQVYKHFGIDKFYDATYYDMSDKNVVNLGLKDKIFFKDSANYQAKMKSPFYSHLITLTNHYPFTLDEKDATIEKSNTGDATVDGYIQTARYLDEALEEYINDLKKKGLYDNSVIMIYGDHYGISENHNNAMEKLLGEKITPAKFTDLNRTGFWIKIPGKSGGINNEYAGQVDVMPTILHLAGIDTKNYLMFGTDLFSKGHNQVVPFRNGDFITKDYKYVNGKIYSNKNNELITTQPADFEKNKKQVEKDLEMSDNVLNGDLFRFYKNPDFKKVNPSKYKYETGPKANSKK

What is called IC50 is the midpoint of a concentration-inhibition curve. The term Kd denotes the free concentration of one partner at which half of the binding sites on the other are occupied at equilibrium, for simple one-to-one binding. Lower therefore signals a tighter complex. For `O=C(COC(=O)c1cn(-c2ccccc2)nc1-c1cccs1)Nc1nnc(-c2ccccc2)o1` [Compound 4], the “cytotoxicity (LDH release)” value in the data set on HEK293 cells is on record as “non-cytotoxic”. The IC50 in data set [1] came out at 4.06 ± 0.4 µM; in data set [1] (setting [3]) it was 4.1 µM. For the same compound, the “improvement in antimicrobial potency” value in data set [1] (compound 4 compared with 1771, S. aureus growth) came to 4 fold. Further, the dissociation constant (Kd) at wild-type eLtaS was found to be 0.365 ± 0.0068 µM. Besides, on wild-type eLtaS (wild-type eLtaS, compared with 1771), the binding enthalpy result is “more exothermic than that of 1771”. Further, the values for the LTA production result in data set [2] and in data set [2] (listed as compound 4) were “able to reduce LTA production” and “decrease LTA production in a dose-dependent manner”, respectively.
For `S=C(Nc1ccc(Cl)cc1)Nc1ccc(Sc2nc3ccccc3[nH]2)cc1` [Compound 9], the “cytotoxicity (LDH release)” value in the data set on HEK293 cells is “not cytotoxic”. For the same compound, in data set [1] (S. aureus growth), the “decrease in antimicrobial potency compared with compound 8” value amounted to 4 fold. Besides, the IC50 in data set [1] and in data set [1] (setting [3]) was 117 µM each time. The affinity on wild-type eLtaS, expressed as Kd, was 0.283 µM. Further, the “electrophoretic mobility of the LTA extracted from treated S. aureus” value in data set [2] (Western blot, 100 μM compound) is “smearing effect”.
